Earlier results on 2 compounds are cited in patent publication US20260232560A1, “SKIN HEALTH BENEFITTING COMPOSITIONS” (priority 2023, published 2026).

The conditions of series [1]: background statement.
For series [2] the following is noted: poor solubility and permeability.

On to `CCCC\C=C/C=C/C=C\CCCCCCCC(=O)O` [Punicic acid], for which the “antioxidant power relative to grape seed extract” value in series [1] was “approximately 10 times”.
Turning to `O=c1oc2c(O)c(O)cc3c(=O)oc4c(O)c(O)cc1c4c23` [Ellagic acid], the BCS class entry in series [2] was “BCS Class IV”.
